Measured values as given in patent US11504365B2 (AVEO Pharmaceuticals, Inc., priority 2018, dated 2022).
Like-named read-outs stand apart in the source and are kept apart here.

Assays:
[1] = 1.5 mg/day, 3 weeks on, 1 week off, cited from earlier work
[2] = prior phase III clinical trial; cited from earlier work
[3] = cited from earlier work
[4] = system: refractory advanced renal cell carcinoma (RCC); test: Randomized open-label Phase 3 study of tivozanib versus sorafenib, efficacy (PFS, OS, ORR, DoR); details: for median PFS: ITT population, independent radiologic review, stratified log rank p-value 0.0165; for median OS: ITT, two years after final patient enrollment, stratified log rank p-value 0.9501; for median PFS, subset receiving a prior check point inhibitor: prior checkpoint inhibitor at any time, tivozanib n=52, sorafenib n=46, unstratified Log-rank p-value 0.0616; for duration of response (DoR), 1st quartile: subjects with objective tumor response (PR or CR), not statistically significant; for 1-year probability of survival: subjects with prior checkpoint inhibitor, FIG. 5 (Kaplan-Meier analysis of IRR PFS)
From the text: (§1) The randomization of subjects was stratified according to the International Metastatic Renal Cell Carcinoma Database Consortium (IMDC) risk category (favorable, intermediate, poor) and according to prior therapy which could be: 1) two prior VEGFR TKIs; 2) a check point inhibitor (e.g., a PD-1 or PDL-1 inhibitor) and a prior VEGFR TKI; or 3) a VEGFR TKI plus any other systemic agent. Once the strata were identified, treatment was randomly assigned to a subject with the strata using a complete permuted block design in an unblended fashion (open-label).
Cycles were repeated every 4 weeks.
(§2) Subjects were analyzed as randomized • 2. […] Subjects were analyzed as treated. • 3. […] Subjects were analyzed as treated.
(§3) The primary efficacy endpoint (PFS) and secondary efficacy endpoints (OS, ORR, and DoR) analyses were carried out using the ITT population. The primary efficacy endpoint of PFS also was analyzed using the PP population.
(§4) The IRR was the primary data source for the PFS analysis.
(§5) The primary analysis was carried out by using a stratified Log-Rank test, in which the stratification factors were IMDC risk category (favorable; intermediate; poor) and prior therapy (two prior VEGFR TKIs; a prior checkpoint inhibitor (PD-1 or PD1 L inhibitor) plus a prior VEGFR TKI; a prior VEGFR TKI plus any other systemic agent), and using a two-sided 5% significance level. The distribution of the PFS was estimated using the Kaplan-Meier method.
(§6) The DoR was analyzed using the same method as the progression-free survival analysis. DoR was only calculated for the subgroup of subjects with an objective tumor response (PR or CR).

[5] = system: refractory advanced renal cell carcinoma (RCC)
From the text: as §1
Cycles were repeated every 4 weeks.
as §2, §3, §4, §5, §6

[6] = subjects with prior therapy with a VEGFR TKI plus any other systemic agent
[7] = subjects with prior therapy with a checkpoint inhibitor and a prior VEGF TKI
[8] = subjects with prior therapy with two VEGFR TKIs

Row | SMILES | study subjects requiring a dose interruption ([1]; 8/272 subjects) [%] | study subjects requiring a dose reduction ([1]; 23/272 subjects) [%] | treatment interruptions and dose reductions due to AEs, compared with sorafenib [2] | subjects experiencing a dose limiting toxicity (DLT) ([3]; 2 mg/day tivozanib group) | maximum tolerated dose (MTD) ([3]; previous study KRN951/03-B01) [mg/day] | reversibility of toxicities upon stopping treatment ([3]; previous study KRN951/03-B01) | median PFS [4] [months] | difference in OS between tivozanib and sorafenib in subgroup analyses ([4]; ITT subgroups, Cox Model hazard ratios with 95% confidence intervals) | median OS [4] [months] | ORR (CR + PR) ([4]; all subjects, 31 PR/172 tivozanib, 14 PR/175 sorafenib) [%] | median PFS, subset receiving a prior check point inhibitor [4] [months] | duration of response (DoR), 1st quartile [4] [months] | 1-year probability of survival [4] | ORR [4, 6] [%] | ORR [4, 7] [%] | ORR [4, 8] [%] | difference in OS between the two treatment groups ([4]; subset with prior checkpoint inhibitor, unstratified Log-rank p-value 0.8360) | ORR (CR + PR) [5] [%]
1 | COc1cc2nccc(Oc3ccc(NC(=O)Nc4cc(C)on4)c(Cl)c3)c2cc1OC [tivozanib, N-{2-chloro-4-[(6,7-dimethoxy-4-quinolyl)oxy]-phenyl}-N′-(5-methyl-3-isoxazolyl)urea] | 2.9 | 8.5 | fewer treatment interruptions and dose reductions due to AEs | 3 of 8 | 1.5 | rapidly reversible | 5.59 | do not indicate a statistically significant difference in OS | 16.39 | 18.0 | 7.29 | 9.79 | 0.37 | 16.7 | 24.4 | 15.2 | no statistically significant differences | –
2 | CNC(=O)c1cc(Oc2ccc(NC(=O)Nc3ccc(Cl)c(C(F)(F)F)c3)cc2)ccn1 [sorafenib, reference compound] | – | – | – | – | – | – | 3.88 | – | 19.65 | – | 5.91 | 5.55 | 0.05 | 9.8 | 6.8 | 7.5 | – | 8.0
